Experimental data reported in article PMC8578629, “Photoactivated cell-killing amino-based flavylium compounds” (Scientific Reports, 2021).

What was measured:
[1] = Fluorescence quantum yield by the absolute method (integrating sphere); assay type: physicochemical; conditions: in DMSO
Method: Based on the absorbance maxima of the different compounds (Fig. S2), the measurement of the quantum yield (QY) of the synthesized flavylium derivatives was performed using a calibrated Quantaurus-QY stand-alone integrating sphere setup C11347-11 (Hamamatsu Photonics, Hamamatsu, Japan) equipped with an integration sphere, a monochromator, a spectrograph, a 150 W xenon light source and a silicon charge coupled device. Each compound was dissolved in DMSO and diluted to ensure an absorbance of 0.1 from the λmax of excitation forward. Each compound was then irradiated at the corresponding wavelength and the absolute quantum yield determined. The fluorescence spectra was also recorded (Fig. S3). For each compound, four independent experiments were performed.

[2] = MTT cytotoxicity assay, keratinocytes; assay type: cell-based; conditions: human, HaCaT cells (keratinocytes), dark
Method: The cytotoxicity of amino-based flavylium compounds to HFF-1 (ATCC Number: SCRC-1041) and HaCaT cells was evaluated using the standard MTT assay. Briefly, cells were seeded at a density of 8 × 10^5 and 4 × 10^4 cells/mL, respectively, in 96-well plate and incubated at 37 °C in a 5% CO2 atmosphere. Cells were allowed to grow for 24 h or until reaching monolayer confluency, and serially diluted compound solutions (6.3–100 µM) were added to the plate wells. The stock solutions of each compound were prepared at 200 mM in DMSO, the maximum % of DMSO in the cells was 0.05%. Then, cells were incubated for 48 h at 37 °C, after which the plate wells were washed once with phosphate buffered saline (PBS, Sigma-Aldrich), followed by addition of a 0.45 mg/mL MTT solution to each well. Crystals were allowed to form for 1.5 h. The reaction was stopped by rejecting the medium followed by the addition of 100 µL of DMSO (Sigma-Aldrich). The absorbance was read at 570 nm in FlexStation 3 Multi-Mode Microplate Reader (Molecular Devices, California, USA).

HaCaT cells = assay: Cellular uptake by HaCaT cells (overall uptake, adsorption/absorption ratio, kinetics); assay type: in vitro ADME, human; conditions: for Uptake amount, range over the initial concentrations: 4 h incubation, 6.25–100 μM; for % Uptake ± SEM: 4 h
Method: The cellular uptake of the different compounds by HaCaT cells was determined following the protocol: cells were seeded at a density of 4 × 10^4 cells/well onto 12-well plates (1060 μL per well) and after 24 h the compounds were added to the plates in different concentrations (6.25–100 μM; 1060 μL per well) and incubated for a period of 4 h at 37 °C in an atmosphere of 5% CO2 and in the presence of DMEM with 2% FBS. Then, the medium with the compounds was removed, cells are washed with PBS to remove any extracellular compounds and the same volume of DMSO (1060 µL) was added to cells. After 60 min in the dark, the plates were submitted to fluorescence determination. The fluorescence intensity of each well was then recorded at the different wavelength pairs specific for each tested compound (ex/em) in a FlexStation 3 Multi-Mode Microplate Reader. The fluorescence values were then used to plot into the corresponding calibration curves and the uptake amounts were determined. • Fl577/658 = 19.734 × Conc (7NEt24′NMe2), μM; Fl577/769 = 0.2869 × Conc (7NEt2st4′NMe2), μM; • Fl577/635 = 24.556 × Conc (7NEt24′NH2), μM; Fl577/635 = 42.851 × Conc (PpIX), μM;
The ratio between the absorption and surface adsorption by HaCaT for each compound was performed. Cells were seeded in the same conditions as previously stated. After 24 h, compounds were added to the plates at the concentration of 100 μM (1060 μL per well) and incubated for a period of 4 h at 37 °C in an atmosphere of 5% CO2 and in the presence of DMEM with 2% FBS. After incubation, the medium with the compounds was removed and Dulbecco’s phosphate buffer (DPBS) was added (1060 μL per well). The fluorescence intensity of each well was then determined at the different wavelength pairs specific for each tested compound (ex/em) using a FlexStation 3 Multi‐Mode Microplate Reader. After this, 300 μL of Trypan Blue was added ([…]) to each well and the fluorescence intensity was determined in the same conditions. Cells with DPBS and cells with DPBS + Trypan Blue were used as controls. • Fl577/658 = 19.734 × Conc (7NEt24′NMe2), μM; Fl577/769 = 0.2869 × Conc (7NEt2st4′NMe2), μM; • Fl577/635 = 24.556 × Conc (7NEt24′NH2), μM; Fl577/635 = 42.851 × Conc (PpIX), μM;
The cellular uptake kinetics of the different compounds by HaCaT cells was determined as follows: cells were seeded at a density of 4 × 10^4 cells/well onto 12-well plates (1060 μL per well) and after 24 h compounds were added to the plates at a concentration of 100 μM (1060 μL per well) and incubated for different time periods (15, 30, 60, 120, 180 and 240 min) at 37 °C in an atmosphere of 5% CO2 and in the presence of DMEM with 2% FBS. After each time period, the medium with the compounds was removed and DMSO was added to cells. After 60 min in the dark the plates were submitted to fluorescence determination. The fluorescence intensity of each well was then determined at the different wavelength pairs specific for each tested compound (ex/em) (FlexStation 3 Multi-Mode Microplate Reader). The fluorescence values were then used to plot into the corresponding calibration curves and the uptake amounts were determined.

[3] = design: method as in doi:10.1016/j.cplett.2017.02.055; conditions: cited from earlier work

SMILES	Quantum yield of fluorescence (Φf), mean ± SD [1] [%]	IC50 at 48 h ([2]; monolayer confluence) [µM]	IC50 at 48 h ([2]; proliferation) [µM]	Uptake amount, range over the initial concentrations (HaCaT cells)	% Uptake ± SEM (HaCaT cells; initial concentration 6.25 μM) [%]	% Uptake ± SEM (HaCaT cells; initial concentration 12.5 μM) [%]	% Uptake ± SEM (HaCaT cells; initial concentration 25 μM) [%]	% Uptake ± SEM (HaCaT cells; initial concentration 50 μM) [%]	% Uptake ± SEM (HaCaT cells; initial concentration 100 μM) [%]	Fluorescence quantum yield [3] [%]
CCN(CC)c1ccc2ccc(/C=C/c3ccc(N(C)C)cc3)[o+]c2c1 [7NEt2st4′NMe2, 7-(diethylamino)-2-(4′-dimethylaminostyryl)-benzopyrylium]	3.40 ± 0.17	91 ± 0.8	35.42 ± 0.02	3.564–5.830%	4.448 ± 0.876	4.236 ± 0.628	3.564 ± 0.613	4.091 ± 0.552	5.830 ± 1.569	–
CCN(CC)c1ccc2ccc(-c3ccc(N)cc3)[o+]c2c1 [7NEt24′NH2, 4′-amino-7-diethylamino-benzopyrylium]	–	29.8 ± 0.8	8.9 ± 0.2	1.229–2.192%	1.229 ± 0.296	1.828 ± 0.419	1.977 ± 0.581	2.192 ± 0.662	1.785 ± 0.383	–
CCN(CC)c1ccc2ccc(-c3ccc(N(C)C)cc3)[o+]c2c1 [7NEt24′NMe2, 7-diethylamino-4′-dimethylamino-benzopyrylium]	5.83 ± 0.28	–	–	2.745–4.156%	3.416 ± 0.629	4.156 ± 0.764	2.745 ± 0.504	3.660 ± 0.831	3.523 ± 0.695	–
C=CC1=C(C)c2cc3[nH]c(cc4nc(cc5[nH]c(cc1n2)c(C)c5CCC(=O)O)C(CCC(=O)O)=C4C)c(C)c3C=C [PpIX, protoporphyrin IX, reference compound]	–	–	–	–	0.694 ± 0.110	0.615 ± 0.050	0.508 ± 0.021	0.667 ± 0.040	0.659 ± 0.037	8.5
